Patent US8293294B2, “Cosmetic composition comprising an aqueous extract of Chrysophyllum cainito” (Laboratories Clarins, priority 2008, dated 2012)

Test system: CML (carboxymethyl adducts of lysine) induced by glyoxal
Test: Inhibition of glyoxal-induced CML formation in cultured human dermal fibroblasts (immunofluorescence)
Assay type: cell-based
Settings: aminoguanidine 10 mM, positive reference, fibroblasts with 200 μM glyoxal for 7 days
Experimental: It is a question of evaluating the inhibitory activity of the extract of Chrysophyllum cainito with respect to CML (carboxymethyl adducts of lysine) induced by glyoxal as well as its protective effect on vimentin, the target of formation of the CMLs, in a culture of human dermal fibroblasts.
Normal adult human fibroblasts were cultivated at 37° C. and 5% CO2 on a cover slip in a Petri dish of diameter 60 at a rate of 30000 cells per cover slip. The incubation medium is DMEM medium (Dulbecco modified Eagle medium) supplemented with 10% fetal calf serum and penicillin/streptomycin (50 μg/ml). […]
The cells were washed with PBS (phosphate-buffered saline) and permeabilized with 0.1% Triton X-100 for 10 minutes. […] Before taking the reading, 4 rinsings with PBS are performed.
The cover slips are mounted on the glass slide and then examined with the fluorescence microscope (Nikon Eclipse 50i). […] The photomicrographs are analyzed using Lucia image analysis software. The FITC fluorescence images indicate the regions of localization of vimentin. The TRITC fluorescence images indicate the regions of localization of CML. The DAPI fluorescence images indicate the cell nuclei and therefore the number of cells per field (see FIGS. 1 to 4).
This intensity of fluorescence is shown relative to the number of cells per micrograph. […]

N=C(N)NN [Aminoguanidine]
inhibition of the formation of carboxymethyl adducts of lysine (CML), intensity of labeling: completely inhibits
inhibition of the formation of carboxymethyl adducts of lysine (CML), intensity of labeling (listed as aminoguanidine): completely inhibited
